Consider one compound from patent US11161830B2, “4-pyridone compound or salt thereof, and pharmaceutical composition and formulation including same” (priority 2017, dated 2021).

The structures appear in SMILES notation. Several values for one entry are separate records, joined by “and”; a condition that tells them apart may be missing. Identical values can stand only once.

For the test, the system named is HBV genotype C. Description: Test Example 3-2: in vivo efficacy study in PXB mouse (chimeric mouse with human hepatocytes), first and second study. The settings on record: second study, orally 3 mg/kg twice a day for 14 days from day 35, individual mice, 3 mg/kg. Details: species or system hepatitis B virus. The method, then:
An in vivo efficacy study with a PXB mouse (a chimeric mouse with human hepatocytes) was carried out in PhenixBio Co., Ltd. 19-Week-or-more-old male mice having body weights of 10.5 g or more after the elapse of 13 weeks or more from the infection with HBV genotype C were allocated into the respective groups and used. The studies were carried out twice, and a 21-day administration withdrawal period was provided between the first study and the second study.
The first administration day in the first study was taken as day 0, and the compound of Example 6-5 was orally administered at 1 mg/kg, 3 mg/kg, 10 mg/kg, and 30 mg/kg twice a day, or 0.5% methylcellulose (vehicle) was orally administered once a day for 14 days. Before administration on day 0, day 3, Day 7, and day 10, and on day 14, the blood was collected from the orbital venous plexus under anesthesia with isoflurane.
The first administration day in the second study was taken as day 35, and the compounds of Examples 19-2 and 20-2 were each orally administered at 3 mg/kg twice a day, or 0.5% methylcellulose (vehicle) was orally administered once a day for 14 days. Before administration on day 35, day 38, day 42, and day 45, the blood was collected from the orbital venous plexus under anesthesia with isoflurane. On day 49, the blood was collected from the heart under anesthesia with isoflurane.
The serum was separated from the collected blood and purified with a QIAamp (registered trademark) DNA Blood Mini Kit (manufactured by QIAGEN). The amount of HBV-DNA in the obtained solution was absolutely quantified by a real-time PCR method. In addition, the amount of HBsAg in the serum was absolutely quantified by chemiluminescent enzyme immunoassay using Lumipulse (registered trademark) HBsAg-HQ (manufactured by Fujirebio Inc.).

`COCCO[C@@H]1CCN(c2ccc(-c3cc(=O)c(C(=O)O)cn3-c3ccc4nc(N5CCC[C@@H]5COC)sc4c3)cc2)C1` [Example 19-2, 6-(4-((R)-3-(2-methoxyethoxy)pyrrolidin-1-yl)phenyl)-1-(2-((R)-2-(methoxymethyl)pyrrolidin-1-yl)benzo[d]thiazol-6-yl)-4-oxo-1,4-dihydropyridine-3-carboxylic acid]: the HBV-DNA in blood reads like this: (Day 35 (before administration)) 6.1E+08 copies/mL and 3.7E+08 copies/mL; (Day 38) 2.1E+08 copies/mL and 6.2E+08 copies/mL; (Day 42) 3.3E+08 copies/mL and 2.5E+08 copies/mL; (Day 45) 4.2E+08 copies/mL and 3.0E+08 copies/mL; (Day 49) 1.4E+08 copies/mL and 1.8E+08 copies/mL. For the same compound, the HBsAg in serum is, setting by setting: (Day 35 (before administration)) 1,872 IU/mL and 2,473 IU/mL; (Day 38) 968 IU/mL and 2,558 IU/mL; (Day 42) 992 IU/mL and 1,238 IU/mL; (Day 45) 1,548 IU/mL and 1,644 IU/mL; (Day 49) 1,509 IU/mL and 1,348 IU/mL.
